Measured values published in patent US10413535B2, “Pharmaceutical compositions comprising an integrin ALPHA4 antagonist for use in treating ocular inflammatory conditions” (AXEROVISION, INC., priority 2015, dated 2019).

Columns and labels:
[1] = system: IL-1α, MMP-9, CXCL9, TGF-β1 expression; experiment: Inflammatory marker gene expression in cornea and conjunctiva (real time PCR), desiccating stress model; format: in vivo, mouse; conditions: topical 30 mg/mL, 5 days DS, vs vehicle
Protocol: Female C57BL/6 mice, aged 6 to 8 weeks, were subjected to DS for 5 days (DS5) as described previously (de Paiva et al., 2006b; Niederkorn et al., 2006). Topical bilateral treatment with 1 eye drop per eye (2 μL volume) or subcutaneous injection (4 μL volume), 2 times per day, was initiated on day 1 concurrently with DS and continued through day 4. Treatment with the compound of formula I or dexamethasone phosphate 0.1% was compared to correspondingly treated vehicle controls. Mice were randomized to receive one of the test articles. Control mice were kept in a non-stressed (NS) environment maintained at 50-75% relative humidity without exposure to airflow or scopolamine and were not treated with test or control article. Treatment effects were assessed on corneal staining with Oregon Green Dextran (OGD); expression of inflammatory markers in ocular surface tissues by real time PCR; cell population analysis in draining cervical lymph nodes by FACS analysis; conjunctival T cell infiltration by immunohistochemistry.
Total RNA was isolated from corneal and conjunctival epithelia that was collected and pooled from 2 eyes (right and left) at each time point from untreated control mice, mice subjected to DS for 5 days (DS5), DS5 mice topically treated with the compound of formula I ([…]) and vehicle treated animals (n=7/group) using a PicoPure™ RNA Isolation Kit (Acturus Bioscience Inc, Mountain View, Calif., USA) following the manufacturer's protocol. Briefly, corneal epithelial cells were scraped and whole conjunctiva was cut and placed in 100 μL of extraction buffer and incubated at 42° C. for 30 minutes. The cell extract was loaded onto a preconditioned purified column, which was centrifuged, treated with DNase (Qiagen, Valencia, Calif., USA) and washed twice with two different wash buffers. The RNA was eluded in 12 μL of low ionic strength buffer. The RNA concentration was measured by absorption at 260 nm using a spectrophotometer (NanoDrop 2000, Thermo Scientific, Wilmington, Del., USA) and samples were stored at −80° C. until use. First-strand cDNA was synthesized from 1 μg of total RNA with random hexamers using M-MuLV reverse transcriptase (Ready-To-Go You-Prime First-Strand Beads; Amersham Pharmacia Biotech, Inc., Piscataway, N.J.) as previously described (de Paiva et al., 2006a).
A cDNA aliquot (1-4 μL) from samples was used for real time PCR in a total volume of 10 μL containing the following per reaction: 0.3 μL of gene specific Taqman probes used and 5 μL of 2× Taqman Fast PCR Master Mix, (Applied Biosystems). Real time PCR was performed on a StepOnePlus™ Real-Time PCR System (Applied Biosystems) and the parameters consisted of pre-denaturation at 95° C. for 22 sec, followed by 40 cycles of denaturation at 95° C. for 1 sec, annealing and extension at 60° C. for 20 sec. Samples and standards were assayed in duplicate. A non-template control and total RNA without retrotranscription were included in all the experiments to evaluate PCR and DNA contamination of the reagents used. The following mouse Taqman probes were used: IL-1α (Mm00439620); MMP-9 (Mm00442991); CXCL9 (Mm004434946); TGF-β1 (Mm00441724) and HPRT-1 (Mm00446968). The HPRT-1 gene was used as an endogenous reference for each reaction. The results of quantitative PCR were analyzed by the comparative CT method where target change=2-ΔΔ CT. The results were normalized by the CT value of HPRT-1 of the untreated control group (de Paiva et al., 2006b).
Due to skewed distribution of OGD data, the analysis was done on the log 10 scale to make the data more normally distributed. Log 10 OGD data was averaged across two observers and the left and right eyes. The mixed effects ANOVA model included treatment group as a fixed effect and week as a random effect. 95% and 99% confidence intervals were constructed for the disease (5 day DS vs untreated group kept in separate vivarium) and compound treatment effects (treatment vs vehicle). […]

[2] = system: Beagle Dogs; experiment: 13-week topical ocular toxicity study in Beagle dogs; format: in vivo, dog
Protocol: GW559090A was given to Beagle Dogs by topical ocular administration for 13 weeks. Animals were dosed six or twelve times per day, with one hour between doses. Treatment groups were: (1) vehicle (12 times a day), (2) 30 mg/mL/occasion given six times a day, (3) 50 mg/mL/occasion given six times a day, or (4) 50 mg/mL/occasion, given 12 times a day.
GW559090A was formulated as a stock solution in 25 mM phosphate buffer with 0.5% sodium chloride to provide a 50 mg/mL stock solution, which was used for administration to Groups 3 or 4, or further diluted with 25 mM phosphate buffer with 0.75% sodium chloride to provide a 30 mg/mL solution for administration to Group 2.
During the 13 week treatment period dogs received daily topical ocular doses of GW559090 or vehicle (12 times a day) at a constant dose volume of 0.06 mL (given 6 or 12 times a day, with one hour between doses). The test article formulation or vehicle was carefully dropped into the everted lower eyelid of the left eye from a suitable distance, to prevent contact of the positive displacement pipette with the eye. The lower and upper lids were then gently held together for approximately five seconds, to prevent loss of dose and aid even distribution across the external ocular surface. The un-dosed eye was not manipulated at any time and served as a within animal untreated control site.

[3] = topical ocular 13 weeks, 30 or 50 mg/mL/occasion six times daily or 50 mg/mL/occasion 12 times daily

SMILES: Cc1ccccc1OCC(=O)N[C@@H](CC(C)C)C(=O)N[C@@H](Cc1ccc(OC(=O)N2CCC(C(N)=O)CC2)cc1)C(=O)O [GW559090, (2S)-3-[4-({[4-(Aminocarbonyl)-1-piperidinyl]carbonyl}oxy)phenyl]-2-[((2S)-4-methyl-2-{[2-(2-methylphenoxy)acetyl]amino}pentanoyl)amino]propanoic acid]
- CXCL9 transcripts in cornea [1]: significant decrease
- CXCL-9 expression in conjunctiva [1]: no change
- IL-1α expression in conjunctiva [1]: no change
- IL-1α transcripts in cornea [1]: significant decrease
- MMP-9 expression in conjunctiva [1]: no change
- MMP-9 transcripts in cornea [1]: significant decrease
- TGF-β1 expression in conjunctiva [1]: significant reduction
- TGF-β1 transcripts in cornea [1]: significant decrease
- No-Observed-Adverse-Effect level (NOAEL) ([2]; given 12 times a day, 13 weeks): 50 mg/mL/occasion
- Ocular change or systemic toxicity [2, 3]: no ocular change or systemic toxicity
- Tolerability [2, 3]: well-tolerated
